The values that follow come from US20230117324A1, “OXAZINE MONOACYLGLYCEROL LIPASE (MAGL) INHIBITORS” (Hoffmann-La Roche Inc., priority 2018, published 2023).

The test addresses T1, MAGL (Homo sapiens, UniProt Q99685).
T1 sequence (Q99685 1-303): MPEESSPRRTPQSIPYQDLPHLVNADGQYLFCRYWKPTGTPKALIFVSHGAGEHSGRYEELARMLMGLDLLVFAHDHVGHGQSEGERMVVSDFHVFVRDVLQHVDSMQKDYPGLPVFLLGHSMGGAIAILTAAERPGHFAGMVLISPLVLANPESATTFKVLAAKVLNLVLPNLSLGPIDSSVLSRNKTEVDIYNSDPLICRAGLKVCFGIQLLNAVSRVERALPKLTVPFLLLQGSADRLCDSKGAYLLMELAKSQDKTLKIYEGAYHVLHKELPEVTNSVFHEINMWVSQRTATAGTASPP
As to the kind of experiment: MAGL inhibition, 2-AG assay (hydrolysis of 2-arachidonoylglycerol, arachidonic acid by mass spectrometry). The test is classed as biochemical. To be noted: 2-AG assay (footnote [b]). The protocol:
Alternatively, compounds were profiled for MAGL inhibitory activity by determining the enzymatic activity by following the hydrolysis of the natural substrate 2-arachidonoylglycerol (2-AG) resulting in arachidonic acid, which can be followed by mass spectrometry. This assay is hereinafter abbreviated “2-AG assay”.
The 2-AG assay was carried out in 384 well assay plates (PP, Greiner Cat #784201) in a total volume of 20 μL. Compound dilutions were made in 100% DMSO (VWR Chemicals 23500.297) in a polypropylene plate in 3-fold dilution steps to give a final concentration range in the assay from 12.5 μM to […]. 0.25 μL compound dilutions (100% DMSO) were added to 9 μL MAGL in assay buffer (50 mM TRIS (GIBCO, 15567-027), 1 mM EDTA (Fluka, 03690-100 mL), 0.01% (v/v) Tween. After shaking, the plate was incubated for 15 min at RT. To start the reaction, 10 μL 2-arachidonoylglycerol in assay buffer was added. The final concentrations in the assay was […] and 8 μM 2-arachidonoylglyerol. After shaking and 30 min incubation at RT, the reaction was quenched by the addition of 40 μL of ACN containing 4 μM of d8-arachidonic acid. The amount of arachidonic acid was traced by an online SPE system (Agilent Rapidfire) coupled to a triple quadrupole mass spectrometer (Agilent 6460). A C18 SPE cartridge (G9205A) was used in an ACN/water liquid setup. The mass spectrometer was operated in negative electrospray mode following the mass transitions 303.1→259.1 for arachidonic acid and 311.1→267.0 for d8-arachidonic acid. The activity of the compounds was calculated based on the ratio of intensities [arachidonic acid/d8-arachidonic acid].

The structures appear in SMILES notation. pIC50: −log10 of the molar value.

`CC(Oc1ccc(C(F)(F)F)cc1Cl)C1CN(C(=O)N2CC[C@@H]3OCC(=O)N[C@@H]3C2)C1` (single isomer, unassigned) [Example 75, (4aR,8aS)-6-(3-(R or S)-(1-(2-chloro-4-(trifluoromethyl)phenoxy)ethyl)azetidine-1-carbonyl)hexahydro-2H-pyrido[4,3-b][1,4]oxazin-3(4H)-one]: the pIC50 was 7.55.

Consider `CC(Oc1ccc(C(F)(F)F)cc1Cl)C1CN(C(=O)N2CC[C@@H]3OCC(=O)N[C@@H]3C2)C1` (single isomer, unassigned) [Example 76, (4aR,8aS)-6-(3-(S or R)-(1-(2-Chloro-4-(trifluoromethyl)phenoxy)ethyl)azetidine-1-carbonyl)hexahydro-2H-pyrido[4,3-b][1,4]oxazin-3(4H)-one], for which the pIC50 is 9.00.

`O=C1CO[C@H]2CCN(C(=O)N3CCC(C(c4ccccc4)c4ccc(OCCF)cc4)CC3)C[C@H]2N1` (single isomer, unassigned) [Example 79, (4aR,8aS)-6-[4-[(S or R)-[4-(2-Fluoroethoxy)phenyl]-phenylmethyl]piperidine-1-carbonyl]-4,4a,5,7,8,8a-hexahydropyrido[4,3-b][1,4]oxazin-3-one] gave a pIC50 of 9.70.

On to `Cc1ccc(C(c2ccccc2)C2CCN(C(=O)N3CC[C@@H]4OCC(=O)N[C@@H]4C3)CC2)cc1` (single isomer, unassigned) [Example 84, (4aR,8aS)-6-[4-[(S or R)-Phenyl(p-tolyl)methyl]piperidine-1-carbonyl]-4,4a,5,7,8,8a-hexahydropyrido[4,3-b][1,4]oxazin-3-one], for which the pIC50 is 10.00.

Regarding `Cc1ccc(C(c2ccccc2)C2CCN(C(=O)N3CC[C@@H]4OCC(=O)N[C@@H]4C3)CC2)cc1` (single isomer, unassigned) [Example 85, (4aR,8aS)-6-(4-((R or S)-Phenyl(p-tolyl)methyl)piperidine-1-carbonyl)hexahydro-2H-pyrido[4,3-b][1,4]oxazin-3(4H)-one], the pIC50 is 10.00.

The molecule `COc1ccc(C(c2ccccc2)C2CCN(C(=O)N3CC[C@@H]4OCC(=O)N[C@@H]4C3)CC2)cc1OC` (single isomer, unassigned) [Example 87, (4aR,8aS)-6-(4-((S or R)-(3,4-Dimethoxyphenyl)(phenyl)methyl)piperidine-1-carbonyl)hexahydro-2H-pyrido[4,3-b][1,4]oxazin-3(4H)-one] gave a pIC50 of 9.40.

`COc1ccc(C(c2ccc(F)cc2)C2CCN(C(=O)N3CC[C@@H]4OCC(=O)N[C@@H]4C3)CC2)cc1OC` (single isomer, unassigned) [Example 88, (4aR,8aS)-6-(4-((R or S)-(3,4-Dimethoxyphenyl)(4-fluorophenyl)methyl)piperidine-1-carbonyl)hexahydro-2H-pyrido[4,3-b][1,4]oxazin-3(4H)-one]: the pIC50 is 8.66.

Regarding `COc1ccc(C(c2ccc(F)cc2)C2CCN(C(=O)N3CC[C@@H]4OCC(=O)N[C@@H]4C3)CC2)cc1` (single isomer, unassigned) [Example 89, (4aR,8aS)-6-(4-((R or S)-(4-Fluorophenyl)(4-methoxyphenyl)methyl)piperidine-1-carbonyl)hexahydro-2H-pyrido[4,3-b][1,4]oxazin-3(4H)-one], the pIC50 was 9.22.

`O=C1CO[C@H]2CCN(C(=O)N3CCC(C(c4ccc(F)cc4)c4nc(C5CC5)no4)CC3)C[C@H]2N1` (single isomer, unassigned) [Example 94, (4aR,8aS)-6-(4-((R or S)-(3-Cyclopropyl-1,2,4-oxadiazol-5-yl)(4-fluorophenyl)methyl)piperidine-1-carbonyl)hexahydro-2H-pyrido[4,3-b][1,4]oxazin-3(4H)-one] had a pIC50 of 8.70.

Molecule `O=C1CO[C@H]2CCN(C(=O)N3CCC(C(c4ccc(F)cc4)c4nc(C5CC5)no4)CC3)C[C@H]2N1` (single isomer, unassigned) [Example 95, (4aR,8aS)-6-(4-((S or R)-(3-Cyclopropyl-1,2,4-oxadiazol-5-yl)(4-fluorophenyl)methyl)piperidine-1-carbonyl)hexahydro-2H-pyrido[4,3-b][1,4]oxazin-3(4H)-one] gave a pIC50 of 7.80.

On to `CC(Oc1ccc(C(F)(F)F)cc1F)C1CN(C(=O)N2CC[C@@H]3OCC(=O)N[C@@H]3C2)C1` (single isomer, unassigned) [Example 96, (4aR,8aS)-6-(3-((R or S)-1-(2-Fluoro-4-(trifluoromethyl)phenoxy)ethyl)azetidine-1-carbonyl)hexahydro-2H-pyrido[4,3-b][1,4]oxazin-3(4H)-one], for which the pIC50 is 7.36.

As to `CC(Oc1ccc(C(F)(F)F)cc1F)C1CN(C(=O)N2CC[C@@H]3OCC(=O)N[C@@H]3C2)C1` (single isomer, unassigned) [Example 97, (4aR,8aS)-6-(3-((S or R)-1-(2-Fluoro-4-(trifluoromethyl)phenoxy)ethyl)azetidine-1-carbonyl)hexahydro-2H-pyrido[4,3-b][1,4]oxazin-3(4H)-one], the pIC50 was 7.80.

Turning to `CC(Oc1ccc(C(F)(F)F)cc1)C1CN(C(=O)N2CC[C@@H]3OCC(=O)N[C@@H]3C2)C1` (single isomer, unassigned) [Example 98, (4aR,8aS)-6-(3-((R or S)-1-(4-(Trifluoromethyl)phenoxy)ethyl)azetidine-1-carbonyl)hexahydro-2H-pyrido[4,3-b][1,4]oxazin-3(4H)-one], the pIC50 is 7.21.

`CC(Oc1ccc(C(F)(F)F)cc1)C1CN(C(=O)N2CC[C@@H]3OCC(=O)N[C@@H]3C2)C1` (single isomer, unassigned) [Example 99, (4aR,8aS)-6-(3-((S or R)-1-(4-(Trifluoromethyl)phenoxy)ethyl)azetidine-1-carbonyl)hexahydro-2H-pyrido[4,3-b][1,4]oxazin-3(4H)-one] gave a pIC50 of 7.57.

For the molecule `O=C1CO[C@H]2CCN(C(=O)N3CCC(C(c4ccc(F)cc4)c4ccc(OCCF)cc4)CC3)C[C@H]2N1` (single isomer, unassigned) [Example 100, (4aR,8aS)-6-(4-((R or S)-(4-(2-Fluoroethoxy)phenyl)(4-fluorophenyl)methyl)piperidine-1-carbonyl)hexahydro-2H-pyrido[4,3-b][1,4]oxazin-3(4H)-one], the pIC50 is 8.40.

Regarding `CC(c1ccc(C(F)(F)F)cc1)C1CN(C(=O)N2CC[C@@H]3OCC(=O)N[C@@H]3C2)C1` (single isomer, unassigned) [Example 103, (4aR,8aS)-6-(3-((S or R)-1-(4-(Trifluoromethyl)phenyl)ethyl)azetidine-1-carbonyl)hexahydro-2H-pyrido[4,3-b][1,4]oxazin-3(4H)-one], the pIC50 was 7.00.

For the molecule `CC(c1ccc(C(F)(F)F)cc1)C1CN(C(=O)N2CC[C@@H]3OCC(=O)N[C@@H]3C2)C1` (single isomer, unassigned) [Example 104, (4aR,8aS)-6-(3-((R or S)-1-(4-(Trifluoromethyl)phenyl)ethyl)azetidine-1-carbonyl)hexahydro-2H-pyrido[4,3-b][1,4]oxazin-3(4H)-one], the pIC50 is 6.95.

Molecule `O=C1CO[C@H]2CCN(C(=O)N3CC(C(OCC(F)(F)F)c4ccc(F)cc4)C3)C[C@H]2N1` (single isomer, unassigned) [Example 105, (4aR,8aS)-6-[3-(S or R)-[(4-Fluorophenyl)-(2,2,2-trifluoroethoxy)methyl]azetidine-1-carbonyl]-4,4a,5,7,8,8a-hexahydropyrido[4,3-b][1,4]oxazin-3-one] had a pIC50 of 6.36.

Regarding `O=C1CO[C@H]2CCN(C(=O)N3CC(C(OCC(F)(F)F)c4ccc(F)cc4)C3)C[C@H]2N1` (single isomer, unassigned) [Example 106, (4aR,8aS)-6-[3-(R or S)-[(4-Fluorophenyl)-(2,2,2-trifluoroethoxy)methyl]azetidine-1-carbonyl]-4,4a,5,7,8,8a-hexahydropyrido[4,3-b][1,4]oxazin-3-one], the pIC50 is 6.50.

The molecule `O=C1CO[C@H]2CCN(C(=O)N3CCC(C(c4ccccc4)c4cccc(OCCF)c4)CC3)C[C@H]2N1` (single isomer, unassigned) [Example 108, (4aR,8aS)-6-(4-((R or S)-(3-(2-Fluoroethoxy)phenyl)(phenyl)methyl)piperidine-1-carbonyl)hexahydro-2H-pyrido[4,3-b][1,4]oxazin-3(4H)-one] had a pIC50 of 9.40.
